# T1: TMD of integrin αIIb (Homo sapiens, UniProt P08514)
# T1 sequence (P08514 994-1019 limits assumed): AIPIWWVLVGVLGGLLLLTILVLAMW
# What was measured:
# [1] = target: CAMK1 (Homo sapiens, UniProt Q14012); test: Kinase profiling; format: biochemical; details: 50 μM compound
# [2] = target: TMD-5 peptide (Epstein-Barr virus, UniProt P03230); test: NMR titration; format: binding; details: 500 MHz, POPC/DHPC bicelles, 37 °C
# [3] = target: PDGFRB (Homo sapiens, UniProt P09619); test: Kinase profiling; format: biochemical; details: 50 μM compound
# PDGFRB, sequence (P09619 33-1106, species assumed): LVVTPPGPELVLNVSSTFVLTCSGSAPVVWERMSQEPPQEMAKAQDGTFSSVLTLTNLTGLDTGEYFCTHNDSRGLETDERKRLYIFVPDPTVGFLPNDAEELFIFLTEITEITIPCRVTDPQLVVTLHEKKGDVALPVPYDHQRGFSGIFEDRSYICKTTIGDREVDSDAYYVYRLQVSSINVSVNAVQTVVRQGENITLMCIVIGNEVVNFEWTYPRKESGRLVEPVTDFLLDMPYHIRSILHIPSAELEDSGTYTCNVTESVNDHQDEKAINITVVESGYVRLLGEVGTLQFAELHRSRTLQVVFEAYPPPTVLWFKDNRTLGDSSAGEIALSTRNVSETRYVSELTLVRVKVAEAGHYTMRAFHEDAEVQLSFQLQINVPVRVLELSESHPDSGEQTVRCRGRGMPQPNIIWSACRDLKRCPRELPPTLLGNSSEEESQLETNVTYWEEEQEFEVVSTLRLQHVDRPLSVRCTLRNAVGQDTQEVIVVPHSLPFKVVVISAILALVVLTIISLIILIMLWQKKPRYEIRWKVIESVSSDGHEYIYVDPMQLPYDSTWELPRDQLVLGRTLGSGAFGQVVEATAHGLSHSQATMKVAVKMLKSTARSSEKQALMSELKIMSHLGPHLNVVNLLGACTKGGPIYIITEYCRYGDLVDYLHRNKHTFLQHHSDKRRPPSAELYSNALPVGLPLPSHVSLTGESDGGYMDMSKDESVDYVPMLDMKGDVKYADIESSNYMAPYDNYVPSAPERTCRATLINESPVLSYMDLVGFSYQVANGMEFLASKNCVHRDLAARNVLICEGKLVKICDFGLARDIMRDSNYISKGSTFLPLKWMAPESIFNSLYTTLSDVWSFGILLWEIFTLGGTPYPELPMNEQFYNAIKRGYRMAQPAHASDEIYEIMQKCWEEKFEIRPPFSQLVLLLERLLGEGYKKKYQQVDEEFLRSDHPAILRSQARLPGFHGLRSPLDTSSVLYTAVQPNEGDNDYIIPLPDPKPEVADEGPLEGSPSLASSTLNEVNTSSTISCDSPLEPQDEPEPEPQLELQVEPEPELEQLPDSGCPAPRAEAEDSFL
# [4] = target: 12 representative kinases (AKT1, CAMK1, DDR2, GSK-3α, MAPK1, MET, PAK1, PDGFRB, PIM1, PKC-γ, PLK4, SRC); test: Kinase profiling; format: biochemical; details: 50 μM compound
# [5] = target: LMP-1 TMD-5 (Epstein-Barr virus, UniProt P03230); format: cell-based
# [6] = target: T1, TMD of integrin αIIb; test: ToxR reporter assay of integrin αIIb TMD oligomerization; format: cell-based; details: Figure 3c
# [7] = target: TMD-5 trimer (Epstein-Barr virus, UniProt P03230); test: Bis-Tris SDS-PAGE of TMD-5 after NMR titration; format: binding; details: compound to TMD-5 ratio 4:1
# [8] = tested on: B lymphoblastoid cell line 721; details: 100 μM, B 721 cells, 48 h, WST-1
# [9] = target: split luciferase (Photinus pyralis, UniProt P08659); test: Split luciferase false-positive control; format: biochemical; details: false positive evaluation
# split luciferase, sequence (P08659 2-416 limits assumed): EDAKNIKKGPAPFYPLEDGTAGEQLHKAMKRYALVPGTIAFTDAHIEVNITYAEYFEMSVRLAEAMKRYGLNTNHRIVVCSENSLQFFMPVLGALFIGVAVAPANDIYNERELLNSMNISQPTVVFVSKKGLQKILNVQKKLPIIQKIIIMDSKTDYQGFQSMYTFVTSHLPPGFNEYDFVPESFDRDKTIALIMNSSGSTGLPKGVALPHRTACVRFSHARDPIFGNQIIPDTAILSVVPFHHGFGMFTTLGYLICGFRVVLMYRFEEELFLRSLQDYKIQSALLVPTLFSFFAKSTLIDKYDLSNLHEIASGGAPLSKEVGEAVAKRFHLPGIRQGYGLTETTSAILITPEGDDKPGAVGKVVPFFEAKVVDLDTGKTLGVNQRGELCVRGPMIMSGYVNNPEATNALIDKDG
# [10] = tested on: TMD of diacylglycerol kinase (DAGK); format: cell-based; details: ToxR assay, Figure 3c
# [11] = target: coumarin labeled TMD-5 peptide (LMP-1) (Epstein-Barr virus, UniProt P03230); test: Coumarin fluorescence dequenching assay; format: binding
# [12] = tested on: NO production (NF-κB downstream signaling); test: Nitric oxide; format: cell-based, human; details: 100 μM, EBV positive B 721 cells, 48 h
# [13] = tested on: full-length LMP-1-mediated NF-κB activity; test: NF-κB luciferase reporter assay in EBV positive B 721 cells; format: cell-based; details: Homo sapiens, B721, 48 h, read-out: IC50 of NF-κB activation
# [14] = target: the molecule itself; test: Bis-Tris SDS-PAGE
# CAMK1, sequence (Q14012 whole entry, species assumed): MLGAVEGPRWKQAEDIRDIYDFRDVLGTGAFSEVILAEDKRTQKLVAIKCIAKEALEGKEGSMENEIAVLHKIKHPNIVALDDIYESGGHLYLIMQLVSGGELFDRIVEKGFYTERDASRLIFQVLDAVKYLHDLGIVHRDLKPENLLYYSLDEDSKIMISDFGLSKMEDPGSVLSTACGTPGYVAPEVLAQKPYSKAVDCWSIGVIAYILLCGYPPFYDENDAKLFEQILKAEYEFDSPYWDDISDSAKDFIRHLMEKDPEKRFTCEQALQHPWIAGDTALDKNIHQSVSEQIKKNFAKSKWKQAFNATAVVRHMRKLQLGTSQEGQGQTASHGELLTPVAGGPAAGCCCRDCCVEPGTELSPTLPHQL
Molecule,inhibition of CAMK1 [1],chemical shift changes of TMD-5 on titration [2],inhibition of PDGFRB [3],kinase activity retained (ten out of twelve kinases) [4] [%],"IC50 ([5]; read-out: IC50 to disrupt TMD-5 oligomerization in whole cells, ToxR assay, dose-dependent titration) [µM]",inhibition of integrin αIIb TMD oligomerization [6],disruption of TMD-5 trimer to monomer on SDS-PAGE [7],cytotoxicity / growth inhibition [8],inhibition of luciferase control [9],inhibition of DAGK TMD oligomerization [10],coumarin labeled TMD-5 fluorescence increase without detergent ([11]; in the absence of C14 betaine detergent),effect on NO over-production [12],"inhibition of TMD-5 oligomerization (ToxR assay), in words ([5]; Figure 3e/3f)",IC50 [13] [µM],"disruption of TMD-5 association (coumarin fluorescence dequenching), in words ([11]; 100 nM coumarin-labeled TMD-5, 150 μM C14 betaine, pH 7.4)",stoichiometry N [14]
N=C(N)c1ccc(C=Cc2ccc(C(=N)N)cc2O)cc1.O=S(=O)(O)CCO.O=S(=O)(O)CCO [Compound 1],approximately 20%,induced chemical shift changes at a number of sites including the deeply buried Asp 150,approximately 20%,> 95,90 ± 10.5,No apparent oligomerization inhibition,disrupts the TMD-5 trimer,No apparent growth inhibition,did not inhibit luciferase control,did not inhibit DAGK TMD oligomerization,failed to cause coumarin labeled TMD-5 fluorescence increase,suppress NO over-production,–,–,–,–
"C(=Cc1ccc(-c2nc(-c3ccccc3)nc(-c3ccccc3)n2)cc1)c1ccc(-c2nc(-c3ccccc3)nc(-c3ccccc3)n2)cc1 [Compound 6, 2,2'-(1,2-ethenediyldi-4,1-phenylene)bis(4,6-diphenyl-1,3,5-triazine), reference compound]",–,–,–,–,–,–,–,–,–,–,–,no significant inhibition activity,did not inhibit TMD-5 oligomerization,180 ± 27.5,did not inhibit TMD-5 oligomerization,–
GGPGWQLLAFFLAFFLDLILLIIALYLGPGG [TMD-5 peptide (GGPG-WQLLAFFLAFFLDLILLIIALYL-GPGG) derived from LMP-1],–,–,–,–,–,–,–,–,–,–,–,–,–,–,–,3
